From ChEMBL document CHEMBL1133597, “Fluorosulfonyl-substituted xanthines as selective irreversible antagonists for the A(1)-adenosine receptor” (J Med Chem, 2000)

Tests used:
Adenosine receptor A1 = biological target: T1, Adenosine receptor A1 (Homo sapiens, UniProt P30542); assay: Inhibition of [3H]-DPCPX binding to adenosine A1 receptor (AR).; parameters: species or system Cricetulus griseus
T1 sequence (P30542 whole entry): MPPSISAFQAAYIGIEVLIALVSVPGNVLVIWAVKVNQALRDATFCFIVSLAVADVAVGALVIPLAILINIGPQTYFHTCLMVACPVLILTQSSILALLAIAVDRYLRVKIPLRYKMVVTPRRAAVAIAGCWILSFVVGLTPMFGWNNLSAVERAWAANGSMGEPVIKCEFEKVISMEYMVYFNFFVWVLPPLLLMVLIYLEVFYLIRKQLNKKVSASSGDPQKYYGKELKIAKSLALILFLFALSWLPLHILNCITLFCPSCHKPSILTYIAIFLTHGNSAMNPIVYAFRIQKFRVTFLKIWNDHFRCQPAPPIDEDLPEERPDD

Adenosine receptor A2a [1] = biological target: T2, Adenosine receptor A2a (Rattus norvegicus, UniProt P30543)
Description: Inhibition of [3H]ZM-241385 binding to adenosine A2A receptor(AR).

[2] = biological target: T3, Adenosine receptor A1 (Homo sapiens) (UniProt P30542); assay: Percent loss of [3H]-DPCPX binding to adenosine A1 receptor at 200 nM; conditions: Cricetulus griseus
T3 sequence (whole entry): T1 sequence (P30542 whole entry)

[3] = biological target: T3, Adenosine receptor A1 (Homo sapiens); assay: Percent loss of [3H]DPCPX binding to adenosine A1 receptor at 5 nM; conditions: Cricetulus griseus
[4] = biological target: T3, Adenosine receptor A1 (Homo sapiens); assay: Percent loss of [3H]-DPCPX binding to adenosine A1 receptor at 100 nM; conditions: Cricetulus griseus
[5] = biological target: T3, Adenosine receptor A1 (Homo sapiens); assay: Percent loss of [3H]DPCPX binding to adenosine A1 receptor at 0.1 nM; conditions: Cricetulus griseus
[6] = biological target: T3, Adenosine receptor A1 (Homo sapiens); assay: Percent loss of [3H]DPCPX binding to adenosine A1 receptor at 0.05 nM; conditions: Cricetulus griseus
Adenosine receptor A2a [7] = biological target: T2, Adenosine receptor A2a; remark: listed apart in the source
Description: Dissociation constant of [3H]ZM-241385 binding to adenosine A2A receptor(AR)

T2 sequence (P30543 whole entry): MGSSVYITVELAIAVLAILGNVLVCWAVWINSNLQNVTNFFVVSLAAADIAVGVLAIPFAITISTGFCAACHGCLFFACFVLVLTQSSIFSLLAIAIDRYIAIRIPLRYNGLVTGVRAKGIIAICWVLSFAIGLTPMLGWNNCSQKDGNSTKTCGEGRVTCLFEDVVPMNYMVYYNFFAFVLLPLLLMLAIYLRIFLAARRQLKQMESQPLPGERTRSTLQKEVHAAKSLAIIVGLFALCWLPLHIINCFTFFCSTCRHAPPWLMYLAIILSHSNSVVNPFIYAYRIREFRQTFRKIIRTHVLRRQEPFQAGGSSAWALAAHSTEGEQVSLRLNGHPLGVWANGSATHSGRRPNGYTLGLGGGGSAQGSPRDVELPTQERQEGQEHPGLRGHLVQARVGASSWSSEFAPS

SMILES	IC50 (Adenosine receptor A1)	IC50 (Adenosine receptor A2a [1])	Loss [2]	Loss [3]	further results
CCCn1c(=O)c2[nH]c(C3CCCCC3)nc2n(CCCc2ccc(S(=O)(=O)F)cc2)c1=O	112 nM	> 10 nM	–	–	–
CCCn1c(=O)c2nc(C3CCCCC3)[nH]c2n(CCCc2ccc(S(=O)(=O)F)cc2)c1=O	–	–	11%	–	–
CCCn1c(=O)c2nc(C3CCCCC3)[nH]c2n(CCCNC(=O)c2ccc(S(=O)(=O)F)cc2)c1=O	24.9 nM	–	–	64%	Loss [4]: 82%; Loss [5]: 43%; Loss [6]: 16%
CCCn1c(=O)c2nc(C3CCCC3)[nH]c2n(CCCOC(=O)c2ccc(S(=O)(=O)F)cc2)c1=O	–	–	–	67%	–
CCCn1c(=O)c2nc(C3CCCCC3)[nH]c2n(CCCCCc2ccc(S(=O)(=O)F)cc2)c1=O	101 nM	> 10 nM	43%	–	–
CCCn1c(=O)c2nc(C3CCCCC3)[nH]c2n(Cc2ccc(S(=O)(=O)F)cc2)c1=O	–	–	0%	–	–
CCCn1c(=O)c2[nH]c(C3CCCC3)nc2n(CCCOC(=O)c2ccc(S(=O)(=O)F)cc2)c1=O	–	1.2 nM	–	–	Kd (Adenosine receptor A2a [7]): 0.23 nM
CCCn1c(=O)c2[nH]c(C3CCCCC3)nc2n(Cc2ccc(S(=O)(=O)F)cc2)c1=O	165 nM	> 10 nM	–	–	–
CCCn1c(=O)c2nc(C3CCCC3)[nH]c2n(CCCNC(=O)c2ccc(S(=O)(=O)F)cc2)c1=O	–	2.8 nM	–	74%	Kd (Adenosine receptor A2a [7]): 0.34 nM; Loss [4]: 83%; Loss [5]: 64%; Loss [6]: 33%
